PMC4138410 (Bioorganic & medicinal chemistry, 2014)
pKi: −log10 of the molar value. Like-named read-outs stand apart in the source and are kept apart here.

Assays:
[1] = biological target: T1, BoNT/A LC (Clostridium botulinum, UniProt P0DPI0); type: biochemical
[2] = pH 7.4; for %GSH remaining at 30 min: 0.5 h
[3] = biological target: T1, BoNT/A LC; experiment: biochemical; type: biochemical
[4] = biological target: T1, BoNT/A LC; type: biochemical; remark: listed apart in the source
[5] = biological target: T1, BoNT/A LC; experiment: biochemical; type: biochemical; remark: listed apart in the source
[6] = biological target: BoNT/A; details: cited from earlier work

T1 sequence (P0DPI0 2-425 limits assumed): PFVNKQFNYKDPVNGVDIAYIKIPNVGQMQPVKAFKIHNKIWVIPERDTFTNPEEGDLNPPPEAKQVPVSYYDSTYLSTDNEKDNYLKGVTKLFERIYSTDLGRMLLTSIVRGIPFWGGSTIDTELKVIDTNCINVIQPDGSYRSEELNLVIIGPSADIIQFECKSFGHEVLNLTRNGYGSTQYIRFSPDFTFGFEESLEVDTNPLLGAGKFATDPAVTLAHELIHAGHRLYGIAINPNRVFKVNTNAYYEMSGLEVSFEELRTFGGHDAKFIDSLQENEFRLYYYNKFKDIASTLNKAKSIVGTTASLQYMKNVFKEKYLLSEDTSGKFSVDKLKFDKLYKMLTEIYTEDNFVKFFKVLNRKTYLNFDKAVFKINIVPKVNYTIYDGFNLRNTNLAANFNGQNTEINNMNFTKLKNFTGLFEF

NCC(=O)Nc1ccc(Oc2ccccc2)cc1 [Compound 28, 2-Amino-N-(4-phenoxyphenyl)acetamide]
effect on BQ-mediated inactivation of BoNT/A (in words) [1]: competed

COC1=CC(=O)C(OC)=C(c2ccc(C)cc2)C1=O [Compound 21, 2,5-diOMe-3-Tol-BQ]
%GSH remaining at 30 min [2]: 49 (35) % | %GSH remaining at 1 hour [2]: 49 (35) %

COC1=CC(=O)C=C(OC)C1=O [Compound 24, 2,6-diOMe-BQ]
%GSH remaining at 30 min [2]: 0%

O=C1C=CC(=O)C=C1 [Compound 3, BQ]
irreversible/time-dependent inactivation in 66-mer assay (in words) [3]: comparable to the SNAPtide assay

chicoric acid [CA]
effect on BQ-mediated inactivation of BoNT/A (in words) [1]: not affected

O=C1C=CC(=O)C(Nc2cccc(C(=O)NCc3ccc(Oc4ccccc4)cc3)n2)=C1 [Compound 31, 6-[(3,6-Dioxocyclohexa-1,4-dien-1-yl)amino]-N-(4-phenoxybenzyl)picolinamide]
fold increase in activity by adding the phenoxyphenyl fragment [4]: 7 fold | fold increase in potency by addition of BQ vs analogous amino acetamide [4]: 21 fold

O=C1C=CC(=O)C(CC(=O)O)=C1 [Compound 22, 2-(3,6-Dioxocyclohexa-1,4-dien-1-yl)acetic acid]
inhibition of BoNT/A in 66-mer assay (in words) [4]: fairly active | kinact/KI [3]: 2.5 M⁻¹ s⁻¹

O=C1C=CC(=O)c2cc(O)ccc21 [Compound 19, 6-OH-NQ]
%GSH remaining at 30 min [2]: 32 (22) % | %GSH remaining at 1 hour [2]: 32 (22) %

O=C(NCc1ccc(Oc2ccccc2)cc1)c1ccccn1 [Compound 35, N-(4-phenoxybenzyl)picolinamide]
inhibition of BoNT/A in 66-mer assay (in words) [4]: high IC50 values

O=C1C=CC(=O)C(CNCC(=O)Nc2cccc(OCc3ccccc3)c2)=C1 [Compound 30, N-[3-(Benzyloxy)phenyl]-2-{[(3,6-dioxocyclohexa-1,4-dien-1-yl)methyl]amino}acetamide]
fold increase in potency by addition of BQ vs analogous amino acetamide [4]: 26 fold

COc1ccc(OC)c(Nc2cccc(C(=O)NCc3ccc(Oc4ccccc4)cc3)n2)c1 [Compound 34, 6-[(2,5-Dimethoxyphenyl)amino]-N-(4-phenoxybenzyl)picolinamide]
inhibition of BoNT/A in 66-mer assay (in words) [4]: decrease in activity

O=C1C=CC(=O)c2c(O)ccc(O)c21 [Compound 13, 5,8-diOH-NQ]
%GSH remaining at 30 min [2]: 39 (26) % | %GSH remaining at 1 hour [2]: 39 (26) %

O=C(NCc1ccc(-c2ccccc2)cc1)c1nc[nH]n1 [Compound 39, N-([1,1′-Biphenyl]-4-ylmethyl)-1H-1,2,4-triazole-3-carboxamide]
inhibition of BoNT/A in 66-mer assay (in words) [4]: high IC50 values

COc1ccc(OC)c(Cn2cnc(C(=O)NCc3ccc(-c4ccccc4)cc3)n2)c1 [Compound 38, N-([1,1′-Biphenyl]-4-ylmethyl)-1-(2,5-dimethoxybenzyl)-1H-1,2,4-triazole-3-carboxamide]
inhibition of BoNT/A in 66-mer assay (in words) [4]: decrease in activity

COc1cccc2c1C(=O)C=CC2=O [Compound 18, 5-OMe-NQ]
%GSH remaining at 30 min [2]: 27 (14) % | %GSH remaining at 1 hour [2]: 27 (14) %

CC1=CC(=O)C=CC1=O [Compound 12, 2-Me-BQ]
kinact/KI [5]: 3.5 M⁻¹ s⁻¹

COc1ccc(OC)c(CNCC(=O)Nc2cccc(OCc3ccccc3)c2)c1 [Compound 33, N-[3-(Benzyloxy)phenyl]-2-[(2,5-dimethoxybenzyl)amino]acetamide]
inhibition of BoNT/A in 66-mer assay (in words) [4]: well tolerated

CS(=O)(=O)SCCCN [MTSPA, (3-aminopropyl)methanethiosulfonate]
pKi [6]: 5.11

C=CC(=O)Nc1cccnc1 [Compound 41]
inhibition of BoNT/A in 66-mer assay (in words) [4]: weakly inhibited | irreversible/time-dependent inactivation in 66-mer assay (in words) [3]: no irreversible inhibition

O=C1C=C(Cl)C(=O)C=C1Cl [Compound 1, 2,5-diCl-BQ]
%GSH remaining at 10 s ([2]; 10 s): 0% | %GSH remaining at 30 min [2]: 0% | effect on catalytic activity (in words) [5]: completely abrogated catalytic activity

CCN1C(=O)C=CC1=O [N-ethylmaleimide, reference compound]
inactivation of BoNT/A in SNAPtide screen (in words) [5]: weakly inactivated | inhibitory rank in SNAPtide assay (in words) [5]: one of the weakest inhibitors tested

O=C1C=CC(=O)C(Cn2cnc(C(=O)NCc3ccc(-c4ccccc4)cc3)n2)=C1 [Compound 32, N-([1,1′-Biphenyl]-4-ylmethyl)-1-[(3,6-dioxocyclohexa-1,4-dien-1-yl)methyl]-1H-1,2,4-triazole-3-carboxamide]
fold increase in potency by addition of BQ vs analogous amino acetamide [4]: 64 fold

CC1=CC(=O)C=C(C)C1=O [Compound 25, 2,6-diMe-BQ]
%GSH remaining at 30 min [2]: 0%
